Source: patent US10287301B2 (Achillion Pharmaceuticals, Inc., priority 2015, dated 2019)

molecular target: Human Factor D (Homo sapiens (Human), UniProt P00746); test: Human Factor D Assay; type: biochemical; details: Human Factor D, Table 3; read-out: IC50
Procedure, shortened: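 Factor D (from human serum) 80 nM final + cpd, 5 min RT, 50 mM Tris/1M NaCl pH 7.5; add Z-L-Lys-SBzl 100 μM and DTNB 100 μM final. IC50 by nonlinear fit of rates vs [cpd].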

Chain of Human Factor D (P00746 26-253): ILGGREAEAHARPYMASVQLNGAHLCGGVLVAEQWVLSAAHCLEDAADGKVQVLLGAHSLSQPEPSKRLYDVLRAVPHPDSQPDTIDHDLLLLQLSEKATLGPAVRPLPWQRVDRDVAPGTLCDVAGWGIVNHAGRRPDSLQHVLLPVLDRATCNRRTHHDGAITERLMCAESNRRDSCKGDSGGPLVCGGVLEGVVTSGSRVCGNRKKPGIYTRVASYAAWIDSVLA

**Q.** Which IC50 does the source give for `CC(=O)c1nn(CC(=O)N2[C@H](C(=O)Nc3cccc(C(F)(F)F)n3)C[C@@]3(C)C[C@@H]23)c2ccc(-c3cnc(C)nc3)cc12` [Compound 631, (1R,3S,5R)-2-(2-(3-acetyl-5-(2-methylpyrimidin-5-yl)-1H-indazol-1-yl)acetyl)-5-methyl-N-(6-(trifluoromethyl)pyridin-2-yl)-2-azabicyclo[3.1.0] hexane-3-carboxamide] here?
**A.** < 1000 nM

**Q.** For `COc1ncc(-c2ccc3c(c2)c(C(C)=O)nn3CC(=O)N2[C@H](C(=O)Nc3nc(Br)ccc3C)C[C@@]3(C)C[C@@H]23)cn1` [Compound 632, (1R,3S,5R)-2-(2-(3-Acetyl-5-(2-methoxypyrimidin-5-yl)-1H-indazol-1-yl)acetyl)-N-(6-bromo-3-methylpyridin-2-yl)-5-methyl-2-azabicyclo[3.1.0]hexane-3-carboxamide], which IC50 is on record?
**A.** < 1000 nM

**Q.** For `CC(=O)c1nn(CC(=O)N2C[C@H](F)C[C@H]2C(=O)Nc2cccc(Br)n2)c2cnc(-c3cnc(C)nc3)cc12` [Compound 633, (2S,4R)-1-(2-(3-Acetyl-5-(2-methylpyrimidin-5-yl)-1H-pyrazolo[3,4-c]pyridin-1-yl)acetyl)-N-(6-bromopyridin-2-yl)-4-fluoropyrrolidine-2-carboxamide], which IC50 is on record?
**A.** < 1000 nM

**Q.** How did the IC50 turn out when `COc1ncc(-c2ccc3c(c2)c(C(C)=O)nn3CC(=O)N2C[C@H]3C[C@H]3[C@H]2C(=O)Nc2nc(Br)ccc2C)cn1` [Compound 634, (1R,2S,5S)-3-(2-(3-Acetyl-5-(2-methoxypyrimidin-5-yl)-1H-indazol-1-yl)acetyl)-N-(6-bromo-3-methylpyridin-2-yl)-3-azabicyclo[3.1.0]hexane-2-carboxamide] was run?
**A.** < 1000 nM

**Q.** For `CC(=O)c1nn(CC(=O)N2C[C@H]3C[C@H]3[C@H]2C(=O)Nc2nc(Br)ccc2C)c2ccc(-c3cnc(N)nc3)cc12` [Compound 635, (1R,2S,5S)-3-(2-(3-Acetyl-5-(2-aminopyrimidin-5-yl)-1H-indazol-1-yl)acetyl)-N-(6-bromo-3-methylpyridin-2-yl)-3-azabicyclo[3.1.0]hexane-2-carboxamide], which IC50 is on record?
**A.** < 1000 nM

**Q.** How did the IC50 turn out when `CC(=O)c1nn(CC(=O)N2[C@H](C(=O)Nc3nc(Br)ccc3C)C[C@@]3(C)C[C@@H]23)c2c(C)cc(-c3cnc(C)nc3)cc12` [Compound 636, (1R,3S,5R)-2-(2-(3-Acetyl-7-methyl-5-(2-methylpyrimidin-5-yl)-1H-indazol-1-yl)acetyl)-N-(6-bromo-3-methylpyridin-2-yl)-5-methyl-2-azabicyclo[3.1.0]hexane-3-carboxamide] was run?
**A.** < 1000 nM

**Q.** How did the IC50 turn out when `CC(=O)c1nn(CC(=O)N2C[C@H]3C[C@H]3[C@H]2C(=O)Nc2nc(Br)ccc2C2CC2)c2ccc(-c3cnc(C)nc3)cc12` [Compound 637, (1R,2S,5S)-3-(2-(3-Acetyl-5-(2-methylpyrimidin-5-yl)-1H-indazol-1-yl)acetyl)-N-(6-bromo-3-cyclopropylpyridin-2-yl)-3-azabicyclo[3.1.0]hexane-2-carboxamide] was run?
**A.** < 1000 nM

**Q.** For `CC(=O)c1nn(CC(=O)N2C[C@H]3C[C@H]3[C@H]2C(=O)Nc2ccn(CC(F)(F)F)n2)c2ccc(-c3cnc(C)nc3)cc12` [Compound 638, (1R,2S,5S)-3-(2-(3-Acetyl-5-(2-methylpyrimidin-5-yl)-1H-indazol-1-yl)acetyl)-N-(1-(2,2,2-trifluoroethyl)-1H-pyrazol-3-yl)-3-azabicyclo[3.1.0]hexane-2-carboxamide], which IC50 is on record?
**A.** < 1000 nM

**Q.** Which IC50 does the source give for `CC(=O)c1nn(CC(=O)N2C[C@@](F)(CN(C)C)C[C@H]2C(=O)Nc2cccc(Br)n2)c2ccc(-c3cnc(C)nc3)cc12` [Compound 639, (2S,4S)-1-(2-(3-Acetyl-5-(2-methylpyrimidin-5-yl)-1H-indazol-1-yl)acetyl)-N-(6-bromopyridin-2-yl)-4-((dimethylamino)methyl)-4-fluoropyrrolidine-2-carboxamide] here?
**A.** < 1000 nM

**Q.** How did the IC50 turn out when `CC(=O)c1nn(CC(=O)N2[C@H](C(=O)Nc3cncc(C(F)(F)F)n3)C[C@@]3(C)C[C@@H]23)c2ccc(-c3cnc(C)nc3)cc12` [Compound 640, (1R,3S,5R)-2-(2-(3-acetyl-5-(2-methylpyrimidin-5-yl)-1H-indazol-1-yl)acetyl)-5-methyl-N-(6-(trifluoromethyl)pyrazin-2-yl)-2-azabicyclo[3.1.0] hexane-3-carboxamide] was run?
**A.** < 1000 nM

**Q.** With `COc1ncc(-c2ccc3c(c2)c(C(C)=O)nn3CC(=O)N2C[C@H]3C[C@H]3[C@H]2C(=O)Nc2nc(Br)ccc2C2CC2)cn1` [Compound 641, (1R,2S,5S)-3-(2-(3-Acetyl-5-(2-methoxypyrimidin-5-yl)-1H-indazol-1-yl)acetyl)-N-(6-bromo-3-cyclopropylpyridin-2-yl)-3-azabicyclo[3.1.0]hexane-2-carboxamide] as the compound, how does the IC50 read?
**A.** < 1000 nM

**Q.** Which IC50 does the source give for `CC(=O)c1nn(CC(=O)N2C[C@@H](C)C[C@H]2C(=O)Nc2nc(Br)ccc2C)c2ccc(-c3cnc(C)nc3)cc12` [Compound 643, (2S,4S)-1-(2-(3-Acetyl-5-(2-methylpyrimidin-5-yl)-1H-indazol-1-yl)acetyl)-N-(6-bromo-3-methylpyridin-2-yl)-4-methylpyrrolidine-2-carboxamide] here?
**A.** < 1000 nM

**Q.** With `CC(=O)c1nn(CC(=O)N2C[C@H](C)C[C@H]2C(=O)Nc2nc(Br)ccc2C)c2ccc(-c3cnc(C)nc3)cc12` [Compound 644, (2S,4R)-1-(2-(3-Acetyl-5-(2-methylpyrimidin-5-yl)-1H-indazol-1-yl)acetyl)-N-(6-bromo-3-methylpyridin-2-yl)-4-methylpyrrolidine-2-carboxamide] as the compound, how does the IC50 read?
**A.** < 1000 nM

**Q.** For `CC(=O)c1nn(CC(=O)N2C[C@@](F)(CN(C)C)C[C@H]2C(=O)Nc2nc(Br)ccc2C)c2ccc(-c3cnc(C)nc3)cc12` [Compound 645, (2S,4S)-1-(2-(3-Acetyl-5-(2-methylpyrimidin-5-yl)-1H-indazol-1-yl)acetyl)-N-(6-bromo-3-methylpyridin-2-yl)-4-((dimethylamino)methyl)-4-fluoropyrrolidine-2-carboxamide], which IC50 is on record?
**A.** < 1000 nM

**Q.** How did the IC50 turn out when `CC(=O)c1nn(CC(=O)N2[C@@H](C)CC[C@H]2C(=O)Nc2nc(Br)ccc2C)c2ccc(-c3cnc(C)nc3)cc12` [Compound 646, (2S,5S)-1-(2-(3-Acetyl-5-(2-methylpyrimidin-5-yl)-1H-indazol-1-yl)acetyl)-N-(6-bromo-3-methylpyridin-2-yl)-5-methylpyrrolidine-2-carboxamide] was run?
**A.** < 1000 nM

**Q.** For `CC(=O)c1nn(CC(=O)N2[C@H](C(=O)Nc3nc(Br)ccc3C)C[C@@H]3C[C@@H]32)c2ccc(-c3cnc(C)nc3)cc12` [Compound 647, (1S,3S,5S)-2-(2-(3-Acetyl-5-(2-methylpyrimidin-5-yl)-1H-indazol-1-yl)acetyl)-N-(6-bromo-3-methylpyridin-2-yl)-2-azabicyclo[3.1.0]hexane-3-carboxamide], which IC50 is on record?
**A.** < 1000 nM

**Q.** For `CC(=O)c1nn(CC(=O)N2C[C@H](F)C[C@@H]2C(=O)Nc2nc(Br)ccc2C(=O)O)c2ccc(-c3cnc(C)nc3)cc12` [Compound 648, 2-((2R,4R)-1-(2-(3-Acetyl-5-(2-methylpyrimidin-5-yl)-1H-indazol-1-yl)acetyl)-4-fluoropyrrolidine-2-carboxamido)-6-bromonicotinic acid], which IC50 is on record?
**A.** > 10000 nM

**Q.** How did the IC50 turn out when `CC(=O)c1nn(CC(=O)N2C[C@H](F)C[C@H]2C(=O)Nc2cccc(Br)n2)c2ccc(-c3cnc(Cl)nc3)cc12` [Compound 651, (2S,4R)-1-(2-(3-Acetyl-5-(2-chloropyrimidin-5-yl)-1H-indazol-1-yl)acetyl)-N-(6-bromopyridin-2-yl)-4-fluoropyrrolidine-2-carboxamide] was run?
**A.** > 10000 nM
